Assay results reported in US9115380B2, “Kits and methods for generating 5′ capped RNA” (priority 2006, dated 2015).
Like-named read-outs stand apart in the source and are kept apart here.

Legend:
[1] = test system: rabbit reticulocyte lysate; assay type: biochemical; conditions: rabbit reticulocyte lysate
[2] = biological target: vaccinia mRNA (nucleoside-2′-O—) methyltransferase (Vaccinia virus, UniProt P07617); assay type: biochemical
[3] = biological target: vaccinia capping enzyme (Vaccinia virus, UniProt P04298); assay type: biochemical
[4] = test system: wheat germ lysate; assay type: biochemical; conditions: wheat germ lysate, poly(A)-tailed Renilla luciferase RNA
[5] = biological target: RNA guanyltransferase activity of the vaccinia capping enzyme system (Vaccinia virus, UniProt P04298); conditions: permeabilized vaccinia virions; cited from earlier work
[6] = test system: tobacco acid pyrophosphatase (TAP); assay type: biochemical; conditions: capped RNA prepared per Method 6

Nc1nc2c(ncn2[C@H]2C[C@H](O)[C@@H](COP(=O)(O)OP(=O)(O)OP(=O)(O)O)O2)c(=O)[nH]1 [2′-dGTP, 2′-deoxyguanosine-5′-triphosphate]
average relative translation efficiency ([1]; poly(A)-tailed Renilla luciferase RNA, cap 0 structure, GTP-capped cap 0 RNA = 100%): 118% | average relative translation efficiency ([1]; poly(A)-tailed Renilla luciferase RNA, cap I structure): 84% | average relative translation efficiency ([1]; poly(A)-tailed firefly luciferase RNA, cap I structure): 128% | methylation of the 2′-hydroxyl of the 5′-penultimate nucleotide by mRNA (nucleoside-2′-O—) methyltransferase [2]: 52-base radioactive band was observed | conversion of 51-base primary RNA transcript to 52-base capped RNA (in words) [3]: quantitatively converted | relative translation efficiency ([4]; cap 0 structure, GTP-capped cap 0 RNA = 100%): 54% | relative translation efficiency ([4]; cap I structure): 54% | activity relative to GTP in [^32P]-PPi exchange assay [5]: approximately 6% | removal of the cap nucleotide by tobacco acid pyrophosphatase (51-base band on PAGE) [6]: 51-base band was observed
